According to article PMC6804466 (Acta Pharmaceutica Sinica. B, 2019):
Marks after values point to notes of the source that are not given here.

Key:
[1] = tested on: Mock-HEK293 cells; assay: Cytotoxicity of Imp, CCK-8 assay, Mock-HEK293 cells; format: cell-based, human; settings: 24 h; for Effect of Cil or Prb on the survival rate of Mock cells treated with Imp: Imp 0–1 mmol/L plus the named inhibitor 200 μmol/L
[2] = tested on: hOAT3-HEK293 cells; assay: Cytotoxicity of Imp, CCK-8 assay, hOAT3-HEK293 cells; format: cell-based, human; settings: 24 h; for Survival rate of hOAT3-HEK293 cells with Imp in the presence of Cil or Prb: Imp 1 mmol/L plus the named inhibitor 200 μmol/L
[3] = Imp-induced nephrotoxicity in rabbits; format: in vivo, rabbit; settings: for Imp-induced acute structural damage of rabbit kidney after coadministration: Imp 200 mg/kg i.v. plus Cil 200 mg/kg or Prb 50 mg/kg
[4] = calculated from maximum plasma concentration and plasma protein binding
[5] = cited from earlier work
[6] = human; cited from earlier work
[7] = target: T1, hOAT1 (Homo sapiens, UniProt Q4U2R8); assay: Imp uptake by hOAT1-HEK293 cells; format: cell-based; settings: 100 μmol/L, 10 min, with or without Prb 200 μmol/L
T1 sequence (Q4U2R8 1-563): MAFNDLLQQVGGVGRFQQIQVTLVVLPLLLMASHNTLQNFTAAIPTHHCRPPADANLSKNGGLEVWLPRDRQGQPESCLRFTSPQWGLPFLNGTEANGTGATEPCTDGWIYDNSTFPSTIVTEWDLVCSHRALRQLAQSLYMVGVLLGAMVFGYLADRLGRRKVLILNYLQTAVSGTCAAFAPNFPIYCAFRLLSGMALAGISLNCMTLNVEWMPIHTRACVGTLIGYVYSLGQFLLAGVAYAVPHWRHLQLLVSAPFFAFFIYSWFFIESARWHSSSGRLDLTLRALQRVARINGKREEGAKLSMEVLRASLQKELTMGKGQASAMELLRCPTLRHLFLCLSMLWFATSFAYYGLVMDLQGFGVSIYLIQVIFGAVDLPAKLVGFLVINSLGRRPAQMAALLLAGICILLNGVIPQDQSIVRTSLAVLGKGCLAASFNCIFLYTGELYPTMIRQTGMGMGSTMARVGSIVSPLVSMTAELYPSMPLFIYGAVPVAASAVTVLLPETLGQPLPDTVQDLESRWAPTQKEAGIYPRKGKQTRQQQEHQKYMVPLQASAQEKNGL

[8] = tested on: hOAT1-HEK293 cells; assay: Cytotoxicity of Imp, CCK-8 assay, hOAT1-HEK293 cells; format: cell-based, human; settings: Imp alone 1 mmol/L, 24 h
[9] = Pharmacokinetics of Imp in rabbits; format: in vivo; settings: male, New Zealand white, rabbit, iv, 200 mg/kg
[10] = tested on: raOATs; assay: Imp uptake by rabbit primary proximal tubule cells; format: cell-based; settings: Imp 100 μmol/L, 10 min, vs si-Control cells
[11] = target: T2, hOAT3 (Homo sapiens, UniProt Q8TCC7); settings: 100 μmol/L, 10 min, with or without Prb 200 μmol/L
T2 sequence (Q8TCC7 1-542): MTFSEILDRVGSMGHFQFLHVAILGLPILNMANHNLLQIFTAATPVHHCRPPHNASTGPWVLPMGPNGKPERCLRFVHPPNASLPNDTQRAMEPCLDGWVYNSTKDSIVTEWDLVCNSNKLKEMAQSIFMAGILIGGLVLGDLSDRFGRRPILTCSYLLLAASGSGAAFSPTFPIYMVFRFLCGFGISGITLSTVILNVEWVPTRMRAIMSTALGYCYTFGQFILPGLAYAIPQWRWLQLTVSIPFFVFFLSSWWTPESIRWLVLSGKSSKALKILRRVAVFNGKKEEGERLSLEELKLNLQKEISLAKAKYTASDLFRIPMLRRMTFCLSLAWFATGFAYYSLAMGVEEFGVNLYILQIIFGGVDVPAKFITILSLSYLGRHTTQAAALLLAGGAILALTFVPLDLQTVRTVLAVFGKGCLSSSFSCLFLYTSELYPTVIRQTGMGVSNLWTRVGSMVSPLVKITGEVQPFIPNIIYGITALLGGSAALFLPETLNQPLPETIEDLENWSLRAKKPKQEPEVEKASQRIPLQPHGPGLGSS

[12] = Imp 200 mg/kg i.v. with or without Cil 200 mg/kg or Prb 50 mg/kg, 48 h

SMILES: CC1(C)C[C@@H]1C(=O)N/C(=C\CCCCSC[C@H](N)C(=O)O)C(=O)O [Cil, cilastatin]
- Effect of Cil or Prb on the survival rate of Mock cells treated with Imp [1]: little effect
- Survival rate of hOAT3-HEK293 cells with Imp in the presence of Cil or Prb [2]: 66.3%
- Imp-induced acute structural damage of rabbit kidney after coadministration ([3]; 48 h): significantly reduced
- Peak level of free Cil in human [4]: about 140 μmol/L
- Maximum clinical plasma concentration of Cil ([5]; human): 88 µg/mL
- Plasma protein binding of Cil [6]: approximately 40%

SMILES: C[C@@H](O)[C@H]1C(=O)N2C(C(=O)O)=C(SCCN=CN)C[C@H]12 [Imp, Imipenem]
- Substrate of hOAT1 (uptake vs Mock cells, inhibited by Prb) [7]: substrates of hOAT1 and hOAT3
- Survival rate of Mock-HEK293 cells ([1]; Imp alone 1 mmol/L): 85.8%
- Survival rate of hOAT1-HEK293 cells [8]: 47.5%
- Survival rate of hOAT3-HEK293 cells ([2]; Imp alone 1 mmol/L): 27.2%
- Renal histology (HE and PAS staining) ([3]; Imp 200 mg/kg i.v. alone, 48 h): severe renal damage
- Body weight 0 h ([3]; Imp 200 mg/kg i.v. with or without Cil 200 mg/kg or Prb 50 mg/kg, 0 h (baseline)): 2.87 ± 0.24 kg
- Body weight 48 h [3, 12]: 2.69 ± 0.24 kg
- Kidney weight [3, 12]: 13.2 ± 1.5 g
- Kidney/body weight ratio [3, 12]: 4.81 ± 0.29 ^a g/kg
- AUC(0-t) ([9]; plasma): 289 ± 48.7 µg·h/mL
- clearance ([9]; plasma): 11.9 mL/min/kg
- half-life ([9]; plasma): 58 ± 4.2 min
- CL renal ([9]; urine): 2.78 mL/min/kg
- Increase in intracellular level of Imp in rPTCs transfected with si-DHP-I [10]: 30%
- Substrate of hOAT3 (uptake vs Mock cells, inhibited by Prb) [11]: substrates of hOAT1 and hOAT3
- Renal excretion of Imp [5]: ~70%

SMILES: CCCN(CCC)S(=O)(=O)c1ccc(C(=O)O)cc1 [Prb, probenecid]
- Effect of Cil or Prb on the survival rate of Mock cells treated with Imp [1]: little effect
- Survival rate of hOAT3-HEK293 cells with Imp in the presence of Cil or Prb [2]: 76.2%
- Imp-induced acute structural damage of rabbit kidney after coadministration ([3]; 48 h): significantly reduced
